Drawing on US9758505B2, “3-(indol-3-yl)-pyridine derivatives, pharmaceutical compositions and methods for use” (ITEOS THERAPEUTICS, priority 2014, dated 2017), this text covers IC50 for 27 molecules.

In experiment [1] the target is T1, human TDO2 (Homo sapiens (Human), UniProt P48775). The experiment is described as follows: Cellular assay for TDO2 activity, hTDO2-overexpressing P815 cells. The experiment is classed as cell-based. The following applies: murine mastocytoma P815 cells overexpressing hTDO2, overnight incubation, kynurenine in supernatant. As for the experimental part: The compounds of Formula I inhibit the activity of human TDO2 in cells.
T1 sequence (P48775 whole entry): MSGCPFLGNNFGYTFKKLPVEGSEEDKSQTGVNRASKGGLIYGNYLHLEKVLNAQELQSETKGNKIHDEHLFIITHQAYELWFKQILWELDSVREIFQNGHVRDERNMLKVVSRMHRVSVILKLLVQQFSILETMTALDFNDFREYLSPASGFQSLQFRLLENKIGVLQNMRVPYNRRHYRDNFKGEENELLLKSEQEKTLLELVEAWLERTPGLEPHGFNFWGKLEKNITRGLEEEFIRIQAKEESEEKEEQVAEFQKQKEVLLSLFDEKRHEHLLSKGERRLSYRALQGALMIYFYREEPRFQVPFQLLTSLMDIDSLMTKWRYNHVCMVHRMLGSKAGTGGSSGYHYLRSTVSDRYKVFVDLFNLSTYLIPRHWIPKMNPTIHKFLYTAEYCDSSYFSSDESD
The assay (adapted from Pilotte L et al., Proc Natl Acad Sci USA, 2012, 109(7), 2497-502) was performed in 96-well flat bottom plates seeded with murine mastocytoma P815 cells overexpressing hTDO2 (prepared as described in Pilotte et al., PNAS, 2012, 109(7), 2497-2502), at a concentration of 5×10^4 cells/well in a final volume of 200 μL. To determine TDO or IDO activity, the cells were incubated overnight at 37° C. at 5% CO2 in IMDM (Invitrogen) supplemented with 2% FBS and 2% penicillin/streptomycin in the presence of the compounds of the present invention, at different concentrations. The cells may be obtained from the American Type Cuylture Collecion [ATCC® TIB-64™ or commercially, e.g., from Sigma-Aldrich or Life Technologies.]
(§1) The plates were then centrifuged 5 min at 1000 rpm, and 100 μL of the supernatant were collected in a conical plate, 30 uL of TCA 30% were added and a further centrifugated at 3000×g for 10 minutes. 100 μL of the supernatant were collected in a flat bottomed plate and 100 μL of 2% (w/v) 4-(dimethylamino)-benzaldehyde in acetic acid and incubated for 5 min at room temperature. Kynurenine concentrations were determined by measuring the absorbance at 480 nm. A standard curve was made with pure kynurenine. The TDO activity was measured as described above using ten serial concentrations of the compounds of the present invention. Data were fitted using the Prism™ software (GraphPad Software, Inc.) using standard software configurations.

In experiment [2] the target is T1, human TDO2. The experiment is described as follows: Cellular assay for TDO2 activity, A172 cells naturally expressing hTDO2. The conditions noted are these: human glioblastoma A172 cells, overnight incubation, kynurenine in supernatant. The experiment is classed as cell-based. As for the experimental part: A172 is a cell line derived from human brain glioblastoma cells.
To determine TDO, the cells were incubated overnight at 37° C. at 5% CO2 in IMDM (Invitrogen) supplemented with 2% FBS and 2% penicillin/streptomycin in the presence of the compounds of the present invention, at different concentrations.
as §1

A word on the IC50: it is the midpoint of a concentration-inhibition curve. The molecule `CC(=O)N(C)c1ccc(-c2c[nH]c3cc(F)ccc23)cn1` [Example 8, N-(5-(6-fluoro-1H-indol-3-yl)pyridin-2-yl)-N-methylacetamide] came in with an IC50 in experiment [1] of 490 nM.
In the case of `NS(=O)(=O)CCCNc1ccc(-c2c[nH]c3cc(F)ccc23)cn1` [Example 23, 3-((5-(6-fluoro-1H-indol-3-yl)pyridin-2-yl)amino)propane-1-sulfonamide], the IC50 in experiment [2] was 490 nM; in experiment [1] it was 430 nM.
`NS(=O)(=O)CCNc1ccc(-c2c[nH]c3cc(F)ccc23)cn1` [Example 29, 2-((5-(6-fluoro-1H-indol-3-yl)pyridin-2-yl)amino)ethanesulfonamide]: the IC50 in experiment [1] turned out to be 240 nM.
Consider `O=C(Nc1ccc(-c2c[nH]c3cc(F)ccc23)cn1)C1CCNCC1` [Example 35, N-(5-(6-fluoro-1H-indol-3-yl)pyridin-2-yl)piperidine-4-carboxamide], for which the IC50 stood at 530 nM in experiment [2] and 250 nM in experiment [1].
As for `C[C@H](N)C(=O)Nc1ccc(-c2c[nH]c3cc(F)ccc23)cn1` [Example 37, (S)-2-amino-N-(5-(6-fluoro-1H-indol-3-yl)pyridin-2-yl)propanamide], in experiment [1], it took 450 nM to reach half-maximal inhibition (IC50).
Same read-out and setting: then `NCC(=O)Nc1ccc(-c2c[nH]c3cc(F)ccc23)cn1` [Example 39, 2-amino-N-(5-(6-fluoro-1H-indol-3-yl)pyridin-2-yl)acetamide], with 350 nM; and `CC(=O)NCCNc1ccc(-c2c[nH]c3cc(F)ccc23)cn1` [Example 50, N-(2-((5-(6-fluoro-1H-indol-3-yl)pyridin-2-yl)amino)ethyl)acetamide], with 1000 nM.
`NCC(=O)NCCNc1ccc(-c2c[nH]c3cc(F)ccc23)cn1` [Example 51, 2-amino-N-(2-((5-(6-fluoro-1H-indol-3-yl)pyridin-2-yl)amino)ethyl)acetamide] had an IC50 in experiment [1] of 850 nM.
In experiment [1], `O=C(Nc1ccc(-c2c[nH]c3cc(F)ccc23)cn1)C1CC1` [Example 52, N-(5-(6-fluoro-1H-indol-3-yl)pyridin-2-yl)cyclopropanecarboxamide] displayed an IC50 of 120 nM.
For the molecule `CN(c1ccc(-c2c[nH]c3cc(F)ccc23)cn1)S(C)(=O)=O` [Example 54, N-(5-(6-fluoro-1H-indol-3-yl)pyridin-2-yl)-N-methylmethanesulfonamide], the IC50 is 420 nM in experiment [2] and 160 nM in experiment [1].
For `NCCS(=O)(=O)NC1CCN(c2ccc(-c3c[nH]c4cc(F)ccc34)cn2)CC1` [Example 55, 2-amino-N-(1-(5-(6-fluoro-1H-indol-3-yl)pyridin-2-yl)piperidin-4-yl)ethanesulfonamide] the same measures were 990 nM and 290 nM.
For `CN(C)CCS(=O)(=O)NC1CCN(c2ccc(-c3c[nH]c4cc(F)ccc34)cn2)CC1` [Example 56, 2-(dimethylamino)-N-(1-(5-(6-fluoro-1H-indol-3-yl)pyridin-2-yl)piperidin-4-yl)ethanesulfonamide] the same measures were 640 nM and 240 nM.
As to `CS(=O)(=O)N1CCC(C(=O)Nc2ccc(-c3c[nH]c4cc(F)ccc34)cn2)CC1` [Example 61, N-(5-(6-fluoro-1H-indol-3-yl)pyridin-2-yl)-1-(methylsulfonyl)piperidine-4-carboxamide], the IC50 in experiment [2] came to 990 nM; in experiment [1], 170 nM.
For `O=c1ccc(-c2c[nH]c3cc(F)ccc23)c[nH]1` [Example 69, 5-(6-fluoro-1H-indol-3-yl)pyridin-2(1H)-one], in that order: 370 nM and 260 nM.
In the case of `CN(CCNS(=O)(=O)c1ccc(-c2c[nH]c3cc(F)ccc23)cn1)S(C)(=O)=O` [Example 89, 5-(6-fluoro-1H-indol-3-yl)-N-(2-(N-methylmethylsulfonamido)ethyl)pyridine-2-sulfonamide], the IC50 in experiment [2] came to 350 nM.
Still for that read-out and setting: the result for `CS(=O)(=O)N1CCN(S(=O)(=O)c2ccc(-c3c[nH]c4cc(F)ccc34)cn2)CC1` [Example 90, 6-fluoro-3-(6-((4-(methylsulfonyl)piperazin-1-yl)sulfonyl)pyridin-3-yl)-1H-indole] reads 1400 nM; that for `CN(CCNS(C)(=O)=O)S(=O)(=O)c1ccc(-c2c[nH]c3cc(F)ccc23)cn1` [Example 91, 5-(6-fluoro-1H-indol-3-yl)-N-methyl-N-(2-(methylsulfonamido)ethyl)pyridine-2-sulfonamide], 270 nM; that for `CC(=O)NCCNS(=O)(=O)c1ccc(-c2c[nH]c3cc(F)ccc23)cn1` [Example 92, N-(2-(5-(6-fluoro-1H-indol-3-yl)pyridine-2-sulfonamido)ethyl)acetamide], 330 nM.
Still for that read-out and setting: then `O=S(=O)(c1ccc(-c2c[nH]c3ccccc23)cn1)N1CCNCC1` [Example 93, 3-(6-(piperazin-1-ylsulfonyl)pyridin-3-yl)-1H-indole], with 200 nM; and `O=S(=O)(c1ccc(-c2c[nH]c3cc(F)c(F)cc23)cn1)N1CCNCC1` [Example 94, 5,6-difluoro-3-(6-(piperazin-1-ylsulfonyl)pyridin-3-yl)-1H-indole], with 240 nM; and `O=S(=O)(c1ccc(-c2c[nH]c3ccc(F)cc23)cn1)N1CCNCC1` [Example 95, 5-fluoro-3-(6-(piperazin-1-ylsulfonyl)pyridin-3-yl)-1H-indole], with 370 nM.
Same read-out and setting: the result for `Cc1ccc2[nH]cc(-c3ccc(S(=O)(=O)N4CCNCC4)nc3)c2c1` [Example 96, 5-methyl-3-(6-(piperazin-1-ylsulfonyl)pyridin-3-yl)-1H-indole] reads 530 nM.
In the case of `N#Cc1ccc2[nH]cc(-c3ccc(S(=O)(=O)N4CCNCC4)nc3)c2c1` [Example 97, 3-(6-(piperazin-1-ylsulfonyl)pyridin-3-yl)-1H-indole-5-carbonitrile], inhibition in experiment [2] was half-maximal at 2400 nM (IC50).
The same measure, in the same setting: then `Cc1ccc2c(-c3ccc(S(=O)(=O)N4CCNCC4)nc3)c[nH]c2c1` [Example 98, 6-methyl-3-(6-(piperazin-1-ylsulfonyl)pyridin-3-yl)-1H-indole], with 1400 nM; and `NC(=O)CCNS(=O)(=O)c1ccc(-c2c[nH]c3cc(F)ccc23)cn1` [Example 99, 3-(5-(6-fluoro-1H-indol-3-yl)pyridine-2-sulfonamido)propanamide], with 370 nM; and `Fc1ccc2c(-c3ccc(NC4CCOCC4)nc3)c[nH]c2c1` [Example 100, 5-(6-fluoro-1H-indol-3-yl)-N-(tetrahydro-2H-pyran-4-yl)pyridin-2-amine], with 620 nM.
Same read-out and setting: then `CN(CCC(N)=O)S(=O)(=O)c1ccc(-c2c[nH]c3cc(F)ccc23)cn1` [Example 101, 3-(5-(6-fluoro-1H-indol-3-yl)-N-methylpyridine-2-sulfonamido)propanamide], with 360 nM.
